Data on 24 molecules can be found in ChEMBL document CHEMBL2086270, “Rational Design, Synthesis, and SAR of a Novel Thiazolopyrimidinone Series of Selective PI3K-beta Inhibitors” (ACS Med Chem Lett, 2012).

The structures appear in SMILES notation. pEC50, pIC50: −log10 of the molar value. Bounds are passed on as bounds.

As usually defined, the pIC50 is −log10 of the IC50, conventionally taken in molar units. Low values mean a high IC50, high ones a low IC50. Broadly, the pEC50 is −log10 of the EC50, conventionally taken in molar units. What is called GI50 is the concentration that inhibits growth by half. Read a low GI50 as greater sensitivity of the cells. Usually clearance stands for the volume of plasma or blood freed of the substance per unit of time. Read a low clearance as a low capacity for elimination. A word on the bioavailability: it is dose-corrected exposure relative to a reference, in per cent. Low readings indicate little systemic uptake, high ones much systemic uptake. The half-life is the time in which the quantity being followed falls by half.

In data set [1] the target is Phosphatidylinositol 4,5-bisphosphate 3-kinase catalytic subunit alpha isoform (Homo sapiens, UniProt P42336). The experiment in a line: Inhibition of PI3K alpha by continuous TR-FRET assay. In general terms: Time-resolved FRET reads energy transfer from a long-lived donor to a nearby acceptor.
Sequence of Phosphatidylinositol 4,5-bisphosphate 3-kinase catalytic subunit alpha isoform (P42336 whole entry, canonical isoform): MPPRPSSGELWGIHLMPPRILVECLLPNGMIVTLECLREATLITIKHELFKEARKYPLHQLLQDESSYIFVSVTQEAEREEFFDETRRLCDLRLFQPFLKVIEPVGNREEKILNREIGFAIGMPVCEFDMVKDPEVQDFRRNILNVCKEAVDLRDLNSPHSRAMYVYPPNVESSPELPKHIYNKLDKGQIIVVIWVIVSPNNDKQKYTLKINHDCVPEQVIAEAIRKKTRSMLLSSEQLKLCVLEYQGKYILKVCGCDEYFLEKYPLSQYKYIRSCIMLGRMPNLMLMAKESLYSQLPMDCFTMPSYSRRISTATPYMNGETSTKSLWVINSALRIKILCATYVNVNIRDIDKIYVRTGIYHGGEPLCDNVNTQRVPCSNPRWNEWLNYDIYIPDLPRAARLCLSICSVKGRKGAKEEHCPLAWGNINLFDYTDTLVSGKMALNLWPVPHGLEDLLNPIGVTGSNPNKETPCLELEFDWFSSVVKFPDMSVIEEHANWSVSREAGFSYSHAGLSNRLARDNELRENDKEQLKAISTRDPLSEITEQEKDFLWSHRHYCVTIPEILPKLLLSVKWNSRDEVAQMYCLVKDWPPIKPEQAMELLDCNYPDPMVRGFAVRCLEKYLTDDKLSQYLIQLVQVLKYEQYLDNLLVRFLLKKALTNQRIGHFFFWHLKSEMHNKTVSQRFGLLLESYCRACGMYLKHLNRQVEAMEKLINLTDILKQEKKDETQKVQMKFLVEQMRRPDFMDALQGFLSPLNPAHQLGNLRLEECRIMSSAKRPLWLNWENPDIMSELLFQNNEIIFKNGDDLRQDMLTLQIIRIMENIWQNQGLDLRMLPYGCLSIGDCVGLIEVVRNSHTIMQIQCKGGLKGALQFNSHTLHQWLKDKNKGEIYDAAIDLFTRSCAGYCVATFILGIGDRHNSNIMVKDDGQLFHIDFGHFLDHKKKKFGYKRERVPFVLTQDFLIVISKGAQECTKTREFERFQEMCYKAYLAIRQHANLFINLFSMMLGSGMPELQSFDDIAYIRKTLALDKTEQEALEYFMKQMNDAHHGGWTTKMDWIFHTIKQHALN
Data set [2] deals with Phosphatidylinositol 4,5-bisphosphate 3-kinase catalytic subunit gamma isoform (Homo sapiens, UniProt P48736). The experiment in a line: Inhibition of PI3K gamma by continuous TR-FRET assay.
Sequence of Phosphatidylinositol 4,5-bisphosphate 3-kinase catalytic subunit gamma isoform (P48736 whole entry, canonical isoform): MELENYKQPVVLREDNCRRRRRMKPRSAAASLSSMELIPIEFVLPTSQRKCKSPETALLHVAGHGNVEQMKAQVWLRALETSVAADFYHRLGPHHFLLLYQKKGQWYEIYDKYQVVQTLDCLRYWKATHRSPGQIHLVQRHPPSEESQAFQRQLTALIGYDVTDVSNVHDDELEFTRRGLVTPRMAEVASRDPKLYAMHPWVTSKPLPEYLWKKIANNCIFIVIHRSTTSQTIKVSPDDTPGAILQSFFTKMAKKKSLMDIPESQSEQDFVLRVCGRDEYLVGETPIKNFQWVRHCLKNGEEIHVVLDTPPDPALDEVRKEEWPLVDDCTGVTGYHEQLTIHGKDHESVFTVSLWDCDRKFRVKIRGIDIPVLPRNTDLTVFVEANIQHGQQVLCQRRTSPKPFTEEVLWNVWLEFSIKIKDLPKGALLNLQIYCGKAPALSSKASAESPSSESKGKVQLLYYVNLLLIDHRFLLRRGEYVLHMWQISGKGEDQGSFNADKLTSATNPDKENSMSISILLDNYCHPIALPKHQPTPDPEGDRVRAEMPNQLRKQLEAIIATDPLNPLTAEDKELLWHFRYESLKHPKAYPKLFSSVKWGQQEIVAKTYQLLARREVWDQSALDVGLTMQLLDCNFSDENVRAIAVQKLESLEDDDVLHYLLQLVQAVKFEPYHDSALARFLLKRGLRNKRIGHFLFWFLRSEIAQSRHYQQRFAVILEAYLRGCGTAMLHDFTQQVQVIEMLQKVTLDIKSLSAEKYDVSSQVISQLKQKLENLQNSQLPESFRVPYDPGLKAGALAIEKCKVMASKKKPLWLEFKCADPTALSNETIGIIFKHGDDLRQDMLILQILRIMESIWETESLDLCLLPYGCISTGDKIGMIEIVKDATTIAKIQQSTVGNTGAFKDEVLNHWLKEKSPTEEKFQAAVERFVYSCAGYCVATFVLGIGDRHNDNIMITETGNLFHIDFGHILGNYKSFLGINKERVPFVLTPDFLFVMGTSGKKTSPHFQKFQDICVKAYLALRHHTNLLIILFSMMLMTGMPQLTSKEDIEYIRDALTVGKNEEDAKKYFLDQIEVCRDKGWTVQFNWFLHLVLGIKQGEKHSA
The target in data set [3] is T1, Phosphatidylinositol 4,5-bisphosphate 3-kinase catalytic subunit beta isoform (Homo sapiens, UniProt P42338). The experiment in a line: Inhibition of PI3K beta by continuous TR-FRET assay.
T1 sequence (P42338 whole entry, canonical isoform): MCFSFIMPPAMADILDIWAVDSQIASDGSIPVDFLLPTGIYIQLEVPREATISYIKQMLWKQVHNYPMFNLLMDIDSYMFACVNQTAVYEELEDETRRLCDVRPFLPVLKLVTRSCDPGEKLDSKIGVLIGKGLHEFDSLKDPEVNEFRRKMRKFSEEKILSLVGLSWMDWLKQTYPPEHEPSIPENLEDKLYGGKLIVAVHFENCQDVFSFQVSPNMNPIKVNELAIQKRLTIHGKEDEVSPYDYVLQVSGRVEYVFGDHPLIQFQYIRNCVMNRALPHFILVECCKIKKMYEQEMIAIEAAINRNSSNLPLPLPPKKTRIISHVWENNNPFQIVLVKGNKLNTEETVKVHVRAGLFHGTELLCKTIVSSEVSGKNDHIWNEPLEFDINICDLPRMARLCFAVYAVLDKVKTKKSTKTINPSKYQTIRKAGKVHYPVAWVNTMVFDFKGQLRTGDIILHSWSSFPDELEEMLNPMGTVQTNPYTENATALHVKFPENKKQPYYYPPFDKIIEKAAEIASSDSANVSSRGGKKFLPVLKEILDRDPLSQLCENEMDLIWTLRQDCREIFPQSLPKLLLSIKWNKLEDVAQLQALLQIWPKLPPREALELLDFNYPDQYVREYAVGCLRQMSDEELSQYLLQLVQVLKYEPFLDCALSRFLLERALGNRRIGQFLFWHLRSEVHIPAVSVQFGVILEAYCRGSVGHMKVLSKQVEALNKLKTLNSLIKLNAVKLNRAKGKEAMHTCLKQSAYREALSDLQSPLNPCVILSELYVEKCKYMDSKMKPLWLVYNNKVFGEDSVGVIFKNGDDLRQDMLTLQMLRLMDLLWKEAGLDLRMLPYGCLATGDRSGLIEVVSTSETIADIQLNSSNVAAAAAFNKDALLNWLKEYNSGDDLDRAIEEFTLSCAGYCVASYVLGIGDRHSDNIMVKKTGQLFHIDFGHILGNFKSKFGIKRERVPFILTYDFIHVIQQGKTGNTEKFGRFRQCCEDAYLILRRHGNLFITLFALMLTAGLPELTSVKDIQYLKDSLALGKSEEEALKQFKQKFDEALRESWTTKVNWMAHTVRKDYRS
In data set [4] the target is T2, Phosphatidylinositol 4,5-bisphosphate 3-kinase catalytic subunit delta isoform (Homo sapiens, UniProt O00329).
T2 sequence (O00329 whole entry): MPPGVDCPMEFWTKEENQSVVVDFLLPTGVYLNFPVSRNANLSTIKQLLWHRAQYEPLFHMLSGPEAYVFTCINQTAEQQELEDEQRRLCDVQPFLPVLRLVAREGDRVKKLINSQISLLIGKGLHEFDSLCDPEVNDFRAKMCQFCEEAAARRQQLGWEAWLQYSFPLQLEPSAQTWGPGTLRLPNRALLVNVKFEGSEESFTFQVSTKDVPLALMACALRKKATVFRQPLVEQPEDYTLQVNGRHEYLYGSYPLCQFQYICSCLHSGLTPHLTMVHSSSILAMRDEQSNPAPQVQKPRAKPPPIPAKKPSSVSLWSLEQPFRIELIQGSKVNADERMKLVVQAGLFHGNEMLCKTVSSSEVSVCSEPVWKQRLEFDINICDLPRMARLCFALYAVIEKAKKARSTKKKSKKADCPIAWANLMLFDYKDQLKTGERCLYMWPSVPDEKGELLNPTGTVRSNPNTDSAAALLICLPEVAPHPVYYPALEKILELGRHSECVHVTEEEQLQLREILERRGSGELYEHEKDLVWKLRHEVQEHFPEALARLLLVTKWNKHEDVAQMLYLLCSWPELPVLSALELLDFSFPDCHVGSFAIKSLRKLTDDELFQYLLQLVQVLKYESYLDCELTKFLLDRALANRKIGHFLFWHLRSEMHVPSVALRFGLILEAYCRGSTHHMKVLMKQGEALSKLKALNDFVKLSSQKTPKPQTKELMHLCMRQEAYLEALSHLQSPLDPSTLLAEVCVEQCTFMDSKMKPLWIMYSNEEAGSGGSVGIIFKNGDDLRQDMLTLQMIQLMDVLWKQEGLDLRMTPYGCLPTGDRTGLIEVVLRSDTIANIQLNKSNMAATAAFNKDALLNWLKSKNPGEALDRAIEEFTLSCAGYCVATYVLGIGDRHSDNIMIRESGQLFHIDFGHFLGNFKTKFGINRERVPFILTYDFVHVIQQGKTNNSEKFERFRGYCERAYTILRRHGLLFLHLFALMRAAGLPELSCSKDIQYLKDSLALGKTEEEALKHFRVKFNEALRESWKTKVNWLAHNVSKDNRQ
The experiment in a line: Inhibition of PI3K delta by continuous TR-FRET assay.

In data set [5] the target is T1, Phosphatidylinositol 4,5-bisphosphate 3-kinase catalytic subunit beta isoform. The experiment in a line: Inhibition of PI3K beta in human PTEN-deficient MDA-MB-468 cells assessed as inhibition of Akt Ser473 phosphorylation. Format: cell-based.
Another data set relates to MDA-MB-468. The experiment in a line: Antiproliferative activity against PTEN-deficient human MDA-MB-468 cells. The format is functional.
Data set [6] is described as follows: Clearance in CD mouse at 0.3 mg/kg, iv. The format is ADME, organism-based. The arrangement: dose 0.3 mg/kg, route intravenous. The following applies: in vivo.
A short description of data set [7]: Volume of distribution at steady state in CD mouse at 0.3 mg/kg, iv. Format: ADME, organism-based. Further details: dose 0.3 mg/kg, route intravenous. The settings on record: in vivo, read-out: Vdss.
The nature of data set [8]: Oral bioavailability in CD mouse at 100 mg/kg. Format: ADME, organism-based. The settings on record: in vivo.
The subject of the next data set is Mus musculus. The experiment in a line: Dose normalized AUC in CD mouse at 100 mg/kg, po. The format is ADME, organism-based. Further details: dose 100 mg/kg, route oral. The following applies: in vivo.
A short description of data set [9]: Half life in CD mouse at 0.3 mg/kg, iv. The format is ADME, organism-based. Further details: dose 0.3 mg/kg, route intravenous. The settings on record: in vivo.

As for `O=c1ncn(Cc2ccsc2Cl)c2nc(N3CCOCC3)sc12`, the pIC50 in data set [1] was 5.49; in data set [2] it was 5.40; in [3], 6.10; in [4], 5.60.

For `COc1nc(=O)c2sc(N3CCOCC3)nc2n1Cc1cccc(Cl)c1C`, the pIC50 in [1] was 5.80; in [2], 6.40; in [3], 9.52; in [4], 8.00. Further, in [5], the pEC50 is 8.22. In the data set on MDA-MB-468, this molecule came in with a GI50 of 21 nM.

In the case of `CSc1nc(=O)c2sc(N3CCOCC3)nc2n1Cc1cccc(Cl)c1C`, the pIC50 in [1] is 5.70; in data set [2] it was 5.60; in data set [3], 9.52; in data set [4] it was 8.00.

Consider `Cc1c(Cl)cccc1Cn1c(SCC(=O)O)nc(=O)c2sc(N3CCOCC3)nc21`, for which the pIC50 was 6.40 in [1], 6.80 in data set [2], 10.30 in [3] and 8.70 in data set [4].

For `Cc1c(Cn2c(CO)nc(=O)c3sc(N4CCOCC4)nc32)cccc1C(F)(F)F`, the pIC50 in [1] was 6.20; in [2], 6.60; in data set [3], 9.70; in [4] it was 8.52.

Regarding `Cc1ccccc1Cn1cnc(=O)c2sc(N3CCOCC3)nc21`, the pIC50 in data set [1] was 5.60; in [2], 5.60; in data set [3], 7.60; in data set [4], 6.60.

With `Cc1c(Cl)cccc1Cn1c(N)nc(=O)c2sc(N3CCOCC3)nc21`, the pIC50 in [1] is 6.60; in data set [2], 6.30; in data set [3], 9.70; in [4], 8.52. Besides, the pEC50 in [5] was 8.52. In addition, the GI50 with MDA-MB-468 worked out at 26 nM.

In the case of `CC(c1ccccc1)n1cnc(=O)c2sc(N3CCOCC3)nc21` (stereo not drawn), the pIC50 in [1] was < 5.40; in [2] it was 5.30; in data set [3], 6.40; in data set [4], 6.30.

As to `Cc1c(Cn2c(Cc3ccccc3)nc(=O)c3sc(N4CCOCC4)nc32)cccc1C(F)(F)F`, the pIC50 in data set [1] is 5.60; in data set [2] it was 5.70; in data set [3] it was 8.52; in data set [4], 7.20.

In the case of `Cc1c(Cl)cccc1Cn1c(CO)nc(=O)c2sc(N3CCOCC3)nc21`, the negative logarithm of the IC50 (pIC50) in [1] is 6.30; in data set [2] it was 6.60; in [3], 10.00; in [4], 8.70. In [6], this molecule returned a clearance of 29.4 mL/min/kg. Also, the Vd in data set [7] stood at 3.35 L/kg. Also, in [8], the bioavailability is 21%. Further, the AUC/dose in the data set on Mus musculus is reported as 264 ng/(hr.mL.mg.kg). Also, the pEC50 in data set [5] is 8.22. Moreover, the GI50 in the data set on MDA-MB-468 was determined as 8 nM. Moreover, the half-life in [9] is 1.9 h.

`Cc1c(Cn2cnc(=O)c3sc(N4CCOCC4)nc32)cccc1C(F)(F)F`: the pIC50 in data set [1] is 5.40; in [2], 5.80; in [3], 8.52; in [4], 7.20.

Turning to `O=c1ncn(Cc2cccc(Cl)c2Cl)c2nc(N3CCOCC3)sc12`, the pIC50 is 6.00 in data set [1], 5.89 in data set [2], 8.00 in data set [3] and 7.10 in data set [4].

Regarding `Cc1c(Cl)cccc1Cn1c(=S)[nH]c(=O)c2sc(N3CCOCC3)nc21`, the pIC50 in [1] was 5.70; in data set [2], < 5.49; in data set [3], 8.30; in data set [4], 7.30.

Consider `Cc1c(Cn2c(CN)nc(=O)c3sc(N4CCOCC4)nc32)cccc1C(F)(F)F`, for which the pIC50 in data set [1] was < 5.60; in data set [2], < 5.10; in data set [3], 8.52; in [4], 6.80.

For the molecule `O=c1ncn(Cc2ccccc2)c2nc(N3CCOCC3)sc12`, the pIC50 in data set [1] was 5.10; in data set [2] it was 5.20; in [3] it was 6.49; in data set [4], 5.70.

In the case of `O=c1ncn(Cc2cccc(Cl)c2)c2nc(N3CCOCC3)sc12`, the pIC50 in [1] is < 5.49; in [2], < 6.10; in data set [3], 7.10; in [4], 6.49.

In the case of `Cc1c(Cl)cccc1Cn1c(=O)[nH]c(=O)c2sc(N3CCOCC3)nc21`, the pIC50 in data set [1] is 4.30; in [2], < 5.20; in data set [3] it was 8.10; in data set [4] it was 6.30.

Consider `O=c1ncn(CCc2ccccc2)c2nc(N3CCOCC3)sc12`, for which the negative logarithm of the IC50 (pIC50) was < 5.70 in [1], 5.49 in data set [2], 6.10 in data set [3] and 6.00 in [4].

Regarding `Cc1c(Cn2c(-c3ccccc3)nc(=O)c3sc(N4CCOCC4)nc32)cccc1C(F)(F)F`, the pIC50 is < 5.49 in [1], 5.40 in data set [2], 7.30 in [3] and 6.30 in data set [4].

Take `Cc1c(Cn2c(C3CC3)nc(=O)c3sc(N4CCOCC4)nc32)cccc1C(F)(F)F`: the pIC50 was 5.89 in data set [1], 6.00 in data set [2], 9.30 in data set [3] and 7.80 in data set [4]. In addition, the clearance in data set [6] is 48.6 mL/min/kg. Further, in data set [7], the Vd stood at 2.6 L/kg. In [8], this molecule showed a bioavailability of 54%. Also, the AUC/dose with Mus musculus was 192 ng/(hr.mL.mg.kg). The pEC50 in data set [5] was 8.05. Further, halving of growth in the data set with MDA-MB-468 (GI50) required 43 nM. This molecule also had a half-life in [9] of 0.75 h.

Take `CCc1nc(=O)c2sc(N3CCOCC3)nc2n1Cc1cccc(C(F)(F)F)c1C`: the pIC50 in data set [1] is < 5.40; in data set [2] it was 5.89; in data set [3], 9.30; in data set [4], 7.89. Further, the pEC50 in data set [5] was 7.80. Also, the 50% growth inhibitory concentration (GI50) in the data set with MDA-MB-468 was 23 nM.

As for `Cc1c(Cl)cccc1Cn1c(C)nc(=O)c2sc(N3CCOCC3)nc21`, the pIC50 in data set [1] is 5.70; in data set [2] it was 6.00; in [3] it was 9.30; in [4] it was 8.00. Moreover, the pEC50 in data set [5] was 7.72. In the data set on MDA-MB-468, this molecule gave a GI50 of 32 nM.

`Cc1c(Cl)cccc1Cn1cnc(=O)c2sc(N3CCOCC3)nc21`: the negative-log IC50 (pIC50) is 5.60 in data set [1], 5.60 in data set [2], 8.52 in [3] and 7.40 in [4].

For `O=c1ncn(Cc2ccccc2Cl)c2nc(N3CCOCC3)sc12`, the pIC50 was 5.60 in data set [1], 5.10 in data set [2], 6.80 in [3] and < 6.10 in data set [4].
